Data set [1] is described as follows: Reporter selectively fluorescent under reducing conditions (DTT versus control buffer). Format: physicochemical. To be noted: compound 9 at 50 mM. As to the method:
An experiment was conducted to determine the effect of reducing conditions versus non-reducing conditions on a reporter compound according to the invention (compound 9). Two incubations were conducted with compound 9 at a concentration of 50 mM. A control incubation was conducted which compared the same molar concentration of compound 9 in 10 mM Na phosphate at pH 7.5. A reducing reaction composition was made comprising the same buffer, and 10 mM dithiothreitol (DTT). […] For this example, synthesis of compound was conducted as previously described.

The conditions of data set [2]: pH 7.5 buffer. As to the method:
An experiment was conducted to test the ability of compound 12 to respond to reducing conditions. Two incubations were performed: in the first, a control incubation, a sample of compound 12 was added to pH 7.5 buffer. In a second incubation (+DTT), the same amount of compound 12 was added to pH 7.5 buffer and then DTT was added to a final concentration of 10 mM.

Turning to `CC(=O)O.CC(C)(CCSSCC[N+](C)(C)C)C(=O)Oc1ccc2c(c1)Oc1cc(OC(=O)C(C)(C)CCSSCC[N+](C)(C)C)ccc1C21OC(=O)c2ccccc21` [compound 9, Bis(4-(2′-(trimethylamino)ethanedithio)-2,2-dimethylbutyryl)carboxyfluorescein], in data set [1] (10 mM Na phosphate pH 7.5, 10 mM DTT), the “mass spectrometry analysis of content of DTT containing reaction” value is “only fluorescein”. Besides, the “fluorescence under reducing conditions” value in data set [1] (10 mM Na phosphate pH 7.5, 10 mM dithiothreitol (DTT), after one minute at room temperature) is listed as “strong green fluorescence”. Moreover, the “mass spectrometry analysis of content of control reaction” value in data set [1] (10 mM Na phosphate pH 7.5, no DTT) is “only compound 9”.
Consider “5(6)-Carboxy-2′,7′-dichloro-3′,6′-bis(2′″-trimethylammonium(ethanedithio))fluorescein [compound 12]”, for which the “colour of solution after addition of DTT (formation of free dichlorodithiofluorescein dye)” value in data set [2] (DTT 10 mM final, within one minute after addition) is listed as “turned light blue”. Moreover, in data set [2] (no DTT), the “colour of control incubation” value is reported as “remained colorless”.

Source of the values: US7704756B2, “Fluorogenic dyes” (Novartis Vaccines and Diagnostics, Inc., priority 2003, dated 2010).
